Source: patent US10906938B2, “Cell epitopes and combination of cell epitopes for use in the immunotherapy of myeloma and other cancers” (Immatics Biotechnologies GmbH, priority 2015, dated 2021)

Assays:
MM.1S cells = experiment: HLA class I ligand presentation upon carfilzomib treatment on MM.1S cells (LC-MS/MS); assay type: cell-based, human; parameters: key to modulation upon carfilzomib-treatment 24 #1 / modulation upon carfilzomib-treatment 24 #2 / modulation upon carfilzomib-treatment 24 #3 / modulation upon carfilzomib-treatment 48 #1 / modulation upon carfilzomib-treatment 48 #2 / modulation upon carfilzomib-treatment 48 #3: −1: significantly down-modulated; 0: not signifcant/not detected; 1: significantly up-modulated; conditions: for modulation upon carfilzomib-treatment 24 #1 / modulation upon carfilzomib-treatment 24 #2 / modulation upon carfilzomib-treatment 24 #3 / modulation upon carfilzomib-treatment 48 #1 / modulation upon carfilzomib-treatment 48 #2 / modulation upon carfilzomib-treatment 48 #3: MM.1S cells, vs mock-treated controls; for modulation upon carfilzomib-treatment 24 #1 / modulation upon carfilzomib-treatment 24 #2 / modulation upon carfilzomib-treatment 24 #3: 24 h after carfilzomib treatment (100 nM, 1 h); for modulation upon carfilzomib-treatment 24 #1 / modulation upon carfilzomib-treatment 48 #1: biological replicate #1; for modulation upon carfilzomib-treatment 24 #2 / modulation upon carfilzomib-treatment 48 #2: biological replicate #2; for modulation upon carfilzomib-treatment 24 #3 / modulation upon carfilzomib-treatment 48 #3: biological replicate #3; for modulation upon carfilzomib-treatment 48 #1 / modulation upon carfilzomib-treatment 48 #2 / modulation upon carfilzomib-treatment 48 #3: 48 h after carfilzomib treatment (100 nM, 1 h)
Description: (§1) HLA class I and II molecules were isolated using standard immunoaffinity purification as described using the pan-HLA class I specific mAb W6/32, the pan-HLA class II specific mAb T039 and the HLA-DR specific mAB L243 (produced in house).
(§2) HLA ligand extracts were analyzed in 5 technical replicates as described previously. In brief, peptide samples were separated by nanoflow HPLC (RSLCnano, ThermoFisher) using a 50 μm×25 cm PepMap RSLC column (Thermo Fisher) and a gradient ranging from 2.4 to 32.0% acetonitrile over the course of 90 min. Eluting peptides were analyzed in an online coupled LTQ Orbitrap XL mass spectrometer (Thermo Fisher) using a top 5 CID (collision induced dissociation) fragmentation method.
(§3) Data processing was performed as described previously. In brief, the Mascot search engine (Mascot 2.2.04; Matrix Science, London, UK) was implemented to search the human proteome as comprised in the Swiss-Prot database (20,279 reviewed protein sequences, September 2013) without enzymatic restriction. Potential mutated HLA ligands were searched implementing a database containing the human proteome concatenated with proteins containing single amino acid variants (SAVs) listed in the COSMIC database (http://cancer.sanger.ac.uk/cosmic/). Only recurrent SAVs described in 2 or more samples of hematological origin were included. Oxidized methionine was allowed as a dynamic modification. The false discovery rate was estimated using the Percolator algorithm and set to 5%. Peptide lengths were limited to 8-12 amino acids for HLA class I and 12-25 amino acids for HLA class II. Protein inference was disabled, allowing for multiple protein annotations of peptides. HLA annotation was performed using SYFPEITHI [46] or an extended in-house database. Experimental validation of peptide identifications and HLA annotations was performed by mass spectrometric and functional characterization of synthetic peptides for a subset of peptides.
(§4) The inventors quantitatively assessed HLA class I ligand presentation during proteasome inhibitor therapy. Observed was a considerable plasticity of the HLA class I ligandome after treatment with carfilzomib with 17.9±1.1% of MM.1S ligands and 11.2±0.7% of U266 ligands (mean of three biological replicates ±s.d.) showing significant modulation (fold-change ≥4, Po0.01 after Benjamini-Hochberg correction) at t24 h compared with mock-treated controls. Briefly, Cultured MCLs (MM.1S and U266) and primary myeloma samples were incubated with carfilzomib (100 nM, Kyprolis®, available, e.g., from Onyx Pharmaceuticals, Inc.) as an example for a proteasome inhibitor for a 1-h period, followed by three washes in PBS (Gibco) and recultured for additional 24 or 48 h. Controls were incubated with vehicle control (glucose 5%) for 1 h, followed by identical washing and incubation for 24 or 48 h. Experiments were conducted in three biological replicates where indicated.

U266 cells = experiment: HLA class I ligand presentation upon carfilzomib treatment on U266 cells (LC-MS/MS); assay type: cell-based, human; parameters: key to modulation upon carfilzomib-treatment 24 #1 / modulation upon carfilzomib-treatment 24 #2 / modulation upon carfilzomib-treatment 24 #3 / modulation upon carfilzomib-treatment 48 #1 / modulation upon carfilzomib-treatment 48 #2 / modulation upon carfilzomib-treatment 48 #3: −1: significantly down-modulated; 0: not signifcant/not detected; 1: significantly up-modulated; conditions: for modulation upon carfilzomib-treatment 24 #1 / modulation upon carfilzomib-treatment 24 #2 / modulation upon carfilzomib-treatment 24 #3 / modulation upon carfilzomib-treatment 48 #1 / modulation upon carfilzomib-treatment 48 #2 / modulation upon carfilzomib-treatment 48 #3: U266 cells, vs mock-treated controls; for modulation upon carfilzomib-treatment 24 #1 / modulation upon carfilzomib-treatment 24 #2 / modulation upon carfilzomib-treatment 24 #3: 24 h after carfilzomib treatment (100 nM, 1 h); for modulation upon carfilzomib-treatment 24 #1 / modulation upon carfilzomib-treatment 48 #1: biological replicate #1; for modulation upon carfilzomib-treatment 24 #2 / modulation upon carfilzomib-treatment 48 #2: biological replicate #2; for modulation upon carfilzomib-treatment 24 #3 / modulation upon carfilzomib-treatment 48 #3: biological replicate #3; for modulation upon carfilzomib-treatment 48 #1 / modulation upon carfilzomib-treatment 48 #2 / modulation upon carfilzomib-treatment 48 #3: 48 h after carfilzomib treatment (100 nM, 1 h)
Description: as §1, §2, §3, §4

[1] = carfilzomib 100 nM for 1 h, t24 h vs mock-treated controls, fold-change ≥4, Po0.01 after Benjamini-Hochberg correction, mean of three biological replicates ±s.d.

Molecule: CC(C)C[C@H](NC(=O)[C@H](CCc1ccccc1)NC(=O)CN1CCOCC1)C(=O)N[C@@H](Cc1ccccc1)C(=O)N[C@@H](CC(C)C)C(=O)[C@@]1(C)CO1 [carfilzomib, reference compound]
- MM.1S ligands showing significant modulation (MM.1S cells; [1]): 17.9±1.1%
- U266 ligands showing significant modulation (U266 cells; [1]): 11.2±0.7%

Molecule: IPAKPPVSF
- modulation upon carfilzomib-treatment 24 #1 (MM.1S cells): 0
- modulation upon carfilzomib-treatment 24 #2 (MM.1S cells): 0
- modulation upon carfilzomib-treatment 24 #3 (MM.1S cells): 0
- modulation upon carfilzomib-treatment 48 #1 (MM.1S cells): 0
- modulation upon carfilzomib-treatment 48 #2 (MM.1S cells): 0
- modulation upon carfilzomib-treatment 48 #3 (MM.1S cells): 0
- modulation upon carfilzomib-treatment 24 #1 (U266 cells): 0
- modulation upon carfilzomib-treatment 24 #2 (U266 cells): 0
- modulation upon carfilzomib-treatment 24 #3 (U266 cells): 0
- modulation upon carfilzomib-treatment 48 #1 (U266 cells): 0
- modulation upon carfilzomib-treatment 48 #2 (U266 cells): 0
- modulation upon carfilzomib-treatment 48 #3 (U266 cells): 0

Molecule: FVFPGELLL
- modulation upon carfilzomib-treatment 24 #1 (MM.1S cells): 0
- modulation upon carfilzomib-treatment 24 #2 (MM.1S cells): 0
- modulation upon carfilzomib-treatment 24 #3 (MM.1S cells): 0
- modulation upon carfilzomib-treatment 48 #1 (MM.1S cells): 0
- modulation upon carfilzomib-treatment 48 #2 (MM.1S cells): 0
- modulation upon carfilzomib-treatment 48 #3 (MM.1S cells): 0
- modulation upon carfilzomib-treatment 24 #1 (U266 cells): 1
- modulation upon carfilzomib-treatment 24 #2 (U266 cells): 1
- modulation upon carfilzomib-treatment 24 #3 (U266 cells): 0
- modulation upon carfilzomib-treatment 48 #1 (U266 cells): 0
- modulation upon carfilzomib-treatment 48 #2 (U266 cells): 0
- modulation upon carfilzomib-treatment 48 #3 (U266 cells): 0

Molecule: TPSSRPASL
- modulation upon carfilzomib-treatment 24 #1 (MM.1S cells): 1
- modulation upon carfilzomib-treatment 24 #2 (MM.1S cells): 1
- modulation upon carfilzomib-treatment 24 #3 (MM.1S cells): 0
- modulation upon carfilzomib-treatment 48 #1 (MM.1S cells): 0
- modulation upon carfilzomib-treatment 48 #2 (MM.1S cells): 0
- modulation upon carfilzomib-treatment 48 #3 (MM.1S cells): 0
- modulation upon carfilzomib-treatment 24 #1 (U266 cells): 0
- modulation upon carfilzomib-treatment 24 #2 (U266 cells): 0
- modulation upon carfilzomib-treatment 24 #3 (U266 cells): 0
- modulation upon carfilzomib-treatment 48 #1 (U266 cells): 0
- modulation upon carfilzomib-treatment 48 #2 (U266 cells): 0
- modulation upon carfilzomib-treatment 48 #3 (U266 cells): 0

Molecule: RPKAQPTTL
- modulation upon carfilzomib-treatment 24 #1 (MM.1S cells): 0
- modulation upon carfilzomib-treatment 24 #2 (MM.1S cells): 0
- modulation upon carfilzomib-treatment 24 #3 (MM.1S cells): 1
- modulation upon carfilzomib-treatment 48 #1 (MM.1S cells): 0
- modulation upon carfilzomib-treatment 48 #2 (MM.1S cells): 0
- modulation upon carfilzomib-treatment 48 #3 (MM.1S cells): 0
- modulation upon carfilzomib-treatment 24 #1 (U266 cells): 0
- modulation upon carfilzomib-treatment 24 #2 (U266 cells): 0
- modulation upon carfilzomib-treatment 24 #3 (U266 cells): 0
- modulation upon carfilzomib-treatment 48 #1 (U266 cells): 0
- modulation upon carfilzomib-treatment 48 #2 (U266 cells): 0
- modulation upon carfilzomib-treatment 48 #3 (U266 cells): 0

Molecule: FAYPAIRYL
- modulation upon carfilzomib-treatment 24 #1 (MM.1S cells): 0
- modulation upon carfilzomib-treatment 24 #2 (MM.1S cells): 0
- modulation upon carfilzomib-treatment 24 #3 (MM.1S cells): 0
- modulation upon carfilzomib-treatment 48 #1 (MM.1S cells): 0
- modulation upon carfilzomib-treatment 48 #2 (MM.1S cells): 0
- modulation upon carfilzomib-treatment 48 #3 (MM.1S cells): 0
- modulation upon carfilzomib-treatment 24 #1 (U266 cells): 0
- modulation upon carfilzomib-treatment 24 #2 (U266 cells): 0
- modulation upon carfilzomib-treatment 24 #3 (U266 cells): 0
- modulation upon carfilzomib-treatment 48 #1 (U266 cells): 1
- modulation upon carfilzomib-treatment 48 #2 (U266 cells): 0
- modulation upon carfilzomib-treatment 48 #3 (U266 cells): 1

Molecule: KPQPRPQTL
- modulation upon carfilzomib-treatment 24 #1 (MM.1S cells): 1
- modulation upon carfilzomib-treatment 24 #2 (MM.1S cells): 1
- modulation upon carfilzomib-treatment 24 #3 (MM.1S cells): 1
- modulation upon carfilzomib-treatment 48 #1 (MM.1S cells): 0
- modulation upon carfilzomib-treatment 48 #2 (MM.1S cells): 0
- modulation upon carfilzomib-treatment 48 #3 (MM.1S cells): 0
- modulation upon carfilzomib-treatment 24 #1 (U266 cells): 0
- modulation upon carfilzomib-treatment 24 #2 (U266 cells): 0
- modulation upon carfilzomib-treatment 24 #3 (U266 cells): 0
- modulation upon carfilzomib-treatment 48 #1 (U266 cells): 0
- modulation upon carfilzomib-treatment 48 #2 (U266 cells): 0
- modulation upon carfilzomib-treatment 48 #3 (U266 cells): 0

Molecule: TFLPFIHTI
- modulation upon carfilzomib-treatment 24 #1 (MM.1S cells): 0
- modulation upon carfilzomib-treatment 24 #2 (MM.1S cells): 0
- modulation upon carfilzomib-treatment 24 #3 (MM.1S cells): 0
- modulation upon carfilzomib-treatment 48 #1 (MM.1S cells): 0
- modulation upon carfilzomib-treatment 48 #2 (MM.1S cells): 0
- modulation upon carfilzomib-treatment 48 #3 (MM.1S cells): 0

Molecule: APRHPSTNSL
- modulation upon carfilzomib-treatment 24 #1 (MM.1S cells): 0
- modulation upon carfilzomib-treatment 24 #2 (MM.1S cells): 0
- modulation upon carfilzomib-treatment 24 #3 (MM.1S cells): 1
- modulation upon carfilzomib-treatment 48 #1 (MM.1S cells): 0
- modulation upon carfilzomib-treatment 48 #2 (MM.1S cells): 0
- modulation upon carfilzomib-treatment 48 #3 (MM.1S cells): 0
- modulation upon carfilzomib-treatment 24 #1 (U266 cells): 0
- modulation upon carfilzomib-treatment 24 #2 (U266 cells): 1
- modulation upon carfilzomib-treatment 24 #3 (U266 cells): 0
- modulation upon carfilzomib-treatment 48 #1 (U266 cells): 1
- modulation upon carfilzomib-treatment 48 #2 (U266 cells): 1
- modulation upon carfilzomib-treatment 48 #3 (U266 cells): 0
